Source: the OligoGym collection
After the bases stand the sugars from the 5' end (letter, count) and the backbone: PS all phosphorothioate, else s phosphorothioate and o phosphodiester by linkage. Methylation of C is not given here. e = 2'-O-(2-methoxyethyl) (MOE); k = constrained ethyl (cEt); d = 2'-deoxy (DNA); m = 2'-O-methyl

Target: HSD17B13
Settings: ASO, HepaRG

| Sequence | target mRNA inhibition (1 µM) [%] | also measured |
| --- | --- | --- |
| GAAGTTTTTAAGAGGC (sugars k3 d10 k3, PS) | 64 | – |
| GAATAGCAAGCCAACA (sugars k3 d1 m1 d8 k3, PS) | 23 | – |
| GAATCAAATAGATCCT (sugars k3 d10 k3, PS) | 46 | – |
| GAATCATTCAGTAGCT (sugars k3 d10 k3, PS) | 65 | – |
| GAATTCACTATCTCCC (sugars k3 d10 k3, PS) | 38 | – |
| GAATTTTTGAGGTTGG (sugars k3 d10 k3, PS) | 77 | target mRNA inhibition (0.02 µM): 17%; target mRNA inhibition (0.078 µM): 26%; target mRNA inhibition (0.313 µM): 62%; target mRNA inhibition (1.25 µM): 92%; target mRNA inhibition (5 µM): 91% |
| GACAACAGAGTTCTGT (sugars k3 d10 k3, PS) | 9 | – |
| GACAAGAGTTCTTGCA (sugars k3 d10 k3, PS) | 22 | – |
| GACAATACAGGATAGA (sugars k3 d10 k3, PS) | 43 | – |
| GACAATGACATAGACG (sugars k3 d10 k3, PS) | 0 | – |
| GACAATGGTTGCCACT (sugars k3 d10 k3, PS) | 63 | – |
| GACAATGTGCAGCTCT (sugars k3 d10 k3, PS) | 67 | – |
| GACAGAGCAATTTACT (sugars k3 d10 k3, PS) | 55 | – |
| GACAGTAAAATTATGC (sugars k3 d10 k3, PS) | 57 | – |
| GACATAACTTCATAGT (sugars k3 d10 k3, PS) | 39 | – |
| GACATGAAGATTAGTT (sugars k3 d10 k3, PS) | 3 | – |
| GACCAAGGATATATGA (sugars k3 d10 k3, PS) | 48 | – |
| GACCAAGTAGCTTACA (sugars k3 d10 k3, PS) | 28 | – |
| GACCAGGGAATTTATC (sugars k3 d10 k3, PS) | 41 | – |
| GACCTCTGTGAAAGCC (sugars k3 d10 k3, PS) | 46 | – |
| GACTACGGACTGGCAA (sugars k3 d10 k3, PS) | 60 | – |
| GACTGCTGCTAGTGCC (sugars k3 d1 m1 d8 k3, PS) | 60 | – |
| GACTGCTGCTAGTGCC (sugars k3 d10 k3, PS) | 67 | – |
| GACTGCTGCTAGTGCC (sugars kkdddddddddkekek, PS) | 35 | – |
| GACTTCAGAGTTATAC (sugars k3 d10 k3, PS) | 16 | – |
| GACTTGCCTCATTTAG (sugars k3 d10 k3, PS) | 69 | – |
| GACTTTCATAGGGAGA (sugars k3 d10 k3, PS) | 72 | – |
| GAGACAAGAGTTCTTG (sugars k3 d10 k3, PS) | 19 | – |

| Sequence | target mRNA inhibition (1 µM) [%] | also measured |
| --- | --- | --- |
| GAGAGAACTTATACAA (sugars k3 d10 k3, PS) | 37 | – |
| GAGAGCGATAGATCTC (sugars k3 d10 k3, PS) | 1 | – |
| GAGAGTAATCAGTTTT (sugars k3 d10 k3, PS) | 27 | – |
| GAGATTTGAAGGTTAG (sugars k3 d10 k3, PS) | 82 | target mRNA inhibition (0.02 µM): 0%; target mRNA inhibition (0.078 µM): 26%; target mRNA inhibition (0.313 µM): 54%; target mRNA inhibition (1.25 µM): 77%; target mRNA inhibition (5 µM): 92% |
| GAGAUAAAGCTGCCTG (sugars k3 d1 m1 d8 k3, PS) | 39 | – |
| GAGCCTAAAATTGTCT (sugars k3 d10 k3, PS) | 49 | – |
| GAGGAATGGCTAGGAT (sugars k3 d10 k3, PS) | 47 | – |
| GAGGAGTTAGGGAGCC (sugars k3 d10 k3, PS) | 36 | – |
| GAGGCTAGGGAAATCT (sugars k3 d10 k3, PS) | 56 | – |
| GAGGTAGCTTTTGTCC (sugars k3 d10 k3, PS) | 59 | – |
| GAGTATAAATGGCAAT (sugars k3 d10 k3, PS) | 53 | – |
| GAGTATGACAACTGGA (sugars k3 d10 k3, PS) | 23 | – |
| GAGTCGGATTATTTTT (sugars k3 d10 k3, PS) | 44 | – |
| GAGTCGGTCACCTTTC (sugars kkdddddddddkekek, PS) | 62 | – |
| GAGTGCATCTTAAGAT (sugars k3 d10 k3, PS) | 43 | – |
| GAGTTGCACCGTTTTG (sugars k3 d10 k3, PS) | 48 | – |
| GATAAAATAGGGTGCA (sugars k3 d10 k3, PS) | 52 | – |
| GATAAGAAGAGAGCTC (sugars k3 d10 k3, PS) | 36 | – |
| GATAAGTAGATGGTAA (sugars k3 d10 k3, PS) | 59 | – |
| GATACAAATTTATTGG (sugars k3 d10 k3, PS) | 33 | – |
| GATACATACCACTCTT (sugars k3 d10 k3, PS) | 52 | – |
| GATACCAGTTTTTCCC (sugars k3 d10 k3, PS) | 75 | – |
| GATACCTGAAAAGCCC (sugars k3 d10 k3, PS) | 49 | – |
| GATAGATCTCTTCTCT (sugars k3 d10 k3, PS) | 0 | – |
| GATCATTCCTGCTAGT (sugars k3 d10 k3, PS) | 35 | – |
| GATCTTAAGGATCATT (sugars k3 d10 k3, PS) | 0 | – |
| GATGAGGTAAGGAATC (sugars k3 d10 k3, PS) | 0 | – |
